Test results from patent US20060062797A1, “Novel materials and methods for the treatment of Alzheimer's disease patients” (The Research Foundation of State University of New York at …, priority 2004, published 2006).
Like-named read-outs stand apart in the source and are kept apart here. No end group written: not given here.

Columns and labels:
[1] = Neurotoxicity of inhibitor peptides alone in neuronal cell culture (cell count); format: cell-based; conditions: neuronal cell culture, 48 Hour Incubation, read-out: % Survival
Experimental: (§1) An in vitro neuronal cell culture was grown to confluence and studied by cell count as a measure of neurotoxicity. Neurotoxicity was observed following one or two days of incubation with either polymerized Aβ1-42 peptide into amyloid fibrils (ag) or free (i.e., non-polymerized) Aβ1-42 peptides (sol). (See FIG. 9).

[2] = test system: in vitro neuronal cell culture; assay: as above; format: cell-based; conditions: peptide alone
Experimental: as §1

[3] = test system: Aβ1-42 peptide induced neurotoxicity in neuronal cell culture; assay: Protection against Aβ1-42 peptide induced neurotoxicity in neuronal cell culture; format: cell-based; conditions: for inhibition of Aβ1-42 peptide induced neurotoxicity: 1:10 and 1:20; for reduction of Aβ1-42 neurotoxicity: added before Aβ1-42 peptides were allowed to polymerize; for amyloid plaque inhibition activity with protected termini: N- or C-terminal protected or both protected, data not shown
Experimental: These peptides were tested in cell toxicity assays for their ability to prevent cell death (i.e., for example, by apoptotic mechanisms) induced by the Aβ1-42 peptide (SEQ ID NO:157).
as §1
(See FIG. 11A). […] (See FIG. 11B).

Aβ1-42 peptide [4] = target: T1, Aβ1-42 peptide (Homo sapiens, UniProt P05067); conditions: Soto et al. 1996, 1998; cited from earlier work
Aβ1-42 peptides = Aβ1-42 peptides (Homo sapiens, UniProt P05067); assay: Electron microscopy of Aβ1-42 fibril formation in presence of inhibitor protein; format: biochemical; conditions: equimolar ratio with 13C-labeled Aβ1-42 peptides; images over two weeks
Experimental: (§2) The amyloid fibril inhibitor protein (SEQ ID NO: 1) was incubated at an equimolar ratio with ^13C-labeled Aβ1-42 peptides. During this incubation, electron microscopic images were taken over the course of two weeks in accordance with Example 6. […] In fact, suspensions of Aβ1-42 protein (SEQ ID NO: 157) prepared at pH 7 were normally cloudy and formed gels during fibril growth.
Fibrillized amyloid samples were prepared by incubation of aqueous solutions at an Aβ1-42 peptide concentration of approximately 0.2 mM in 1.0 mM phosphate buffer at pH 7.0 with the pH adjusted as necessary by dropwise addition of dilute NaOH or acetic acid. 0.01% NaN3 was added to inhibit bacterial and fungal growth. The solution was incubated for approximately 10 days at a temperature of 24° C., with gentle rocking (200 rpm). Aliquots of incubated solutions were taken for electron microscopic observations after 3-5 days. Amyloid fibril formation was verified by electron microscopic images of negatively stained samples.
For electron microscopic analysis, a 5 μL sample of the amyloid fibril was placed on a carbon coated Foamvar 200 mesh copper grid. The sample was allowed to stand for 15-30 sec and any excess solution was removed by wicking away. The samples were negatively stained with 2% (w/v) uranyl acetate. The excess was wicked away and allowed to dry. […]

[5] = target: Aβ1-42 protein (SEQ ID NO: 157) (Homo sapiens, UniProt P05067); assay: Appearance (clearing, gel formation) of Aβ1-42 suspensions at pH 7; format: biochemical
Experimental: as §2

GpA70-86 fibrils = target: T2, GpA70-86 fibrils (Homo sapiens, UniProt P02724); assay: Glycophorin A transmembrane peptide (GpA70-86) fibril formation, solid-state NMR; format: biochemical; conditions: for ability to inhibit amyloid fibril formation: "this assay system" of Example 2
T2 construct: comprising a 17 amino acid peptide corresponding to amino acid residues 70-86
Experimental: In the experiments below, magic-angle-spinning (MAS) NMR was performed at 360 and 600 MHz on Bruker Avance NMR spectrometers using 4 mm MAS rotors. The cross polarization contact time was 2 ms, two-pulse phase-modulated (TPPM) decoupling was used during the evolution and mixing periods and the dipolar-assisted rotational-resonance (DARR) mixing time was 1 sec. The proton field strength was set to the n =1 rotational resonance condition during the mixing period. Takegoshi et al., “^13C-^1H Dipolar-Driven ^13C-^13C Recoupling Without ^13C RF Irradiation In Nuclear Magnetic Resonance Of Rotating Solids” J. Chem. Phys. 118:2325-2341 (2003). DARR gives rise to off-diagonal cross peaks in the 2D NMR spectra if the ^13C . . . ^13C contacts are less than 6 A apart.
This experiment tested the idea that the large side chain amino acids on one sheet dovetail into the grooves formed by glycine on an opposing β-sheet using a mixture of two differently labeled pools of GpA70-86 peptide. A first set of peptides were labeled with a single ^13C isotope label at the backbone carbonyl carbon of Gly^79. A second set of peptides were ^13C -labeled at the Met^81 methyl side chain group. Computer modeling of the GpA70-86 peptide β-sandwich predicted an inter-β-sheet distance of 3-5 Å between the carbonyl ^13C of Gly^79 and the ^13CH3 of Met^81. The intra-sheet distance, however, was predicted to be ˜8-10 Å, and outside of the detection range of the NMR experiment used. Solid-state NMR techniques measured the intermolecular distance between Met^81 13C-labeled methyl side chains and the carbonyl ^13C-Gly^79 on adjacent β-sheets.
A truncated […], that mimics Aβ1-42 protein, was incubated with a glycine-rich transmembrane peptide (i.e., similar to APP). This target peptide corresponds to glycophorin A's transmembrane domain comprising a 17 amino acid peptide corresponding to amino acid residues 70-86. Glycophorin A, as a complete protein, is not known to form amyloid-like fibrils.

Aβ1-42 peptide [6] = target: T1, Aβ1-42 peptide; assay: Fluorescence thioflavin T assay of amyloid fibrillization; format: biochemical
Experimental: Amyloid fibrillization was measured by the fluorescence thioflavin T assay. Levine III, H, Methods in Enzymology 309: 274-305 (1999). The Aβ1-42 peptide was dissolved and fibrillization was followed over the course of two weeks by monitoring thioflavin T fluorescence. Hou et al., J. Am. Chem. Soc. in press (2004).
The effect of the inhibitor plateaus after three days and shown to be 70%±5 % effective in preventing fibrillization.
Inhibition activities were also measured by fluorescence intensity over time at the following molar ratios of Aβ1-42 peptide to SEQ ID NO:1 (I1) 1:0; 1:1; 1:5; and 1:20. (FIG. 7). […] Soto, et al., Nature Medicine 4:822-826 (1998); and Soto et al., Biochem. Biophys. Res. Comm. 226:672-680 (1996).

[7] = target: Preformed amyloid fibrils comprising Aβ1-42 peptides (Homo sapiens, UniProt P05067); assay: Depolymerization of preformed amyloid fibrils (fluorescence intensity); format: biochemical; conditions: 1:20 molar ratio; for depolymerization of pre-existing Aβ1-42 fibrils (words): FIG. 8
Experimental: Preformed amyloid fibrils comprising Aβ1-42 peptides were incubated with and without SEQ ID NO: 1 (I1) a 1:20 molar ratio.

[8] = 24 hours of polymerization / 24 hour incubation, FIG. 10A, 10B

Preformed amyloid fibrils comprising Aβ1-42 peptides, sequence (P05067 672-713): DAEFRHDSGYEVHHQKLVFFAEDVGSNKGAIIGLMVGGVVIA
T1 sequence (P05067 672-713): as above
Aβ1-42 protein (SEQ ID NO: 157), sequence (P05067 672-713): as above
Aβ1-42 peptides, sequence (P05067 672-713): as above

H-LPFFD-NH2 [SEQ ID NO: 160, NH2-LPFFD-NH2, reference compound]
viability at 48 h ([1]; 10X): 97.9 ± 4.2% | viability at 48 h ([1]; 20X): 97.8 ± 6.6% | toxicity of peptide by itself to neuronal cell culture [2]: not toxic by themselves | toxicity of peptide by itself to neuronal cell culture ([2]; listed as I6): not present | inhibition of Aβ1-42 peptide induced neurotoxicity [3, 8]: Neither SEQ ID NO: 1 or SEQ ID NO: 160 reduced neurotoxicity | inhibition of Aβ1-42 peptide induced neurotoxicity ([3]; 24 hours of polymerization / 24 hour incubation, FIG. 10A, 10B, listed as SEQ ID NO:160): does not inhibit | inhibition of Aβ1-42 peptide induced neurotoxicity ([3]; 48 hours of polymerization / 48 hour incubation, FIG. 10C, 10D, listed as SEQ ID NO:160): does not inhibit | reduction of Aβ1-42 neurotoxicity [3]: Neither SEQ ID NO: 1 or SEQ ID NO: 160 reduced neurotoxicity | reported inhibitor activity (literature) (Aβ1-42 peptide [4]): effective inhibitor

H-RGTFEGKF-NH2 [SEQ ID NO: 1]
fibrils in electron microscopic images (Aβ1-42 peptides): no detectable fibrils | gel formation of Aβ1-42 suspensions ([5]; pH 7, over a two week period or longer): did not form gel compositions | time until Aβ1-42 suspensions became clear after addition ([5]; suspensions prepared at pH 7): less than 5 seconds | glycophorin A transmembrane peptide fibril formation (GpA70-86 fibrils; 1:1 molar ratio): can be blocked | ability to inhibit amyloid fibril formation (GpA70-86 fibrils): most effective | NMR cross peak between Met81 and Gly79 of GpA70-86 fibrils (GpA70-86 fibrils; equimolar amount of inhibitor, FIG. 4D): absent | inhibition of Aβ1-42 fibrillization / amyloid fibril polymerization (words) (Aβ1-42 peptide [6]; FIG. 6, FIG. 7): inhibits amyloid fibril polymerization in a time and dose-dependent manner | inhibition of Aβ1-42 fibrillization / amyloid fibril polymerization (words) (Aβ1-42 peptide [6]; FIG. 6, FIG. 7, listed as SEQ ID NO:1): inhibits fibrillization | depolymerization of pre-existing Aβ1-42 fibrils (words) [7]: depolymerizes pre-existing amyloid fibrils | depolymerization of pre-existing Aβ1-42 fibrils (words) ([7]; listed as SEQ ID NO:1): depolymerizes Aβ1-42 fibrils | depolymerization rate and polymerization rate ([7]; after Day 4): apparently reaches equilibrium | depolymerization rate ([7]; first four incubation days): apparent linear depolymerization rate | viability at 48 h ([1]; 10X): 91.7 ± 5.6% | viability at 48 h ([1]; 20X): 90.5 ± 6.4% | toxicity of peptide by itself to neuronal cell culture [2]: not toxic by themselves | toxicity of peptide by itself to neuronal cell culture ([2]; listed as I1): not present | inhibition of Aβ1-42 peptide induced neurotoxicity [3, 8]: Neither SEQ ID NO: 1 or SEQ ID NO: 160 reduced neurotoxicity | inhibition of Aβ1-42 peptide induced neurotoxicity ([3]; 24 hours of polymerization / 24 hour incubation, FIG. 10A, 10B, listed as SEQ ID NO:1): does not inhibit | inhibition of Aβ1-42 peptide induced neurotoxicity ([3]; 48 hours of polymerization / 48 hour incubation, FIG. 10C, 10D): dose-dependently inhibited neurotoxicity | inhibition of Aβ1-42 peptide induced neurotoxicity ([3]; 48 hours of polymerization / 48 hour incubation, FIG. 10C, 10D, listed as SEQ ID NO:1): does inhibit | amyloid plaque inhibition activity with protected termini [3]: retain amyloid plaque inhibition activity | reduction of Aβ1-42 neurotoxicity [3]: Neither SEQ ID NO: 1 or SEQ ID NO: 160 reduced neurotoxicity

RATFEAKF-NH2 [SEQ ID NO: 19]
ability to inhibit amyloid fibril formation (GpA70-86 fibrils): most effective | amyloid plaque inhibition activity with protected termini [3]: retain amyloid plaque inhibition activity
